Laboratory results: patent US20200216417A1, “INHIBITORS OF FIBROBLAST ACTIVATION PROTEIN” (Praxis Biotech LLC, priority 2019, published 2020)

How the values were obtained:
FAPα = molecular target: T1, FAPα (Mus musculus, UniProt P97321); assay: FAPα enzymatic activity in mouse plasma (PRXS-AMC); assay type: biochemical, C57BL/6 mouse; settings: PRXS-AMC substrate, read-out: mouse plasma FAPα (PRXS-AMC) (exo IC50)
T1 construct: from tissue; host or cells: C57BL/6 mouse plasma (EDTA)
T1 sequence (P97321 24-761 limits assumed): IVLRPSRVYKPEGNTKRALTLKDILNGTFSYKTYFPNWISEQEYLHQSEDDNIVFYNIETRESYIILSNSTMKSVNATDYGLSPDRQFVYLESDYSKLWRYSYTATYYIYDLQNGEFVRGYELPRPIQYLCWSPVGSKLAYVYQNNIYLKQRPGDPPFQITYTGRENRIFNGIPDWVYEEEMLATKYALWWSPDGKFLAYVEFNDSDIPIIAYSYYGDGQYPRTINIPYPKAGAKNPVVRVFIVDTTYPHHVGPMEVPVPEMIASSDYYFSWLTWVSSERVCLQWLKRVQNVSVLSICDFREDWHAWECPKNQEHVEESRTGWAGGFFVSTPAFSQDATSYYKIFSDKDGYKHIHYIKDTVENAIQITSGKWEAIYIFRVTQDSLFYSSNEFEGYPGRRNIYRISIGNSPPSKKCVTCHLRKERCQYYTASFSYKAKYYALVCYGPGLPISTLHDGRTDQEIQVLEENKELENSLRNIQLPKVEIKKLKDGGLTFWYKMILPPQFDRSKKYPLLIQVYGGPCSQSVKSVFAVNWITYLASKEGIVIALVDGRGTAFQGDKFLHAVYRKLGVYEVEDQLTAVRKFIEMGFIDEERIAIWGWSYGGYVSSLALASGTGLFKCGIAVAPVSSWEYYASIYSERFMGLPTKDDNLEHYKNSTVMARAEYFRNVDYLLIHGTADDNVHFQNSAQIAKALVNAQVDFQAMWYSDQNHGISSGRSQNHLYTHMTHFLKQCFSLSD
Protocol: Approximately 500 μL of whole blood from one C57BL/6 mouse was harvested into BD Microtainer® tubes (K2) EDTA (#365974, Becton Dickinson and Co.) via terminal cardiac puncture. The blood sample was immediately centrifuged at approximately 9000 g at 4° C. for 5 minutes. Plasma was separated and stored at −80° C. in aliquots of 300 μL. To assay baseline FAPα enzymatic exopeptidase activity, 5 μL of thawed, plasma was diluted (1:5) with cFAP buffer (100 mM Tris-HCl, 400 mM NaCl, 50 mM salicylic acid, 1 mM EDTA, pH 7.5) and mixed with 35 μL of the same buffer before being pre-incubated with different concentrations of 10 μL of test compounds or DMSO vehicle for 15 minutes at 37° C. in 96-well black plates (Nunc, #237108). After pre-incubation, 50 μL of 200 μM PRXS-AMC were added to the mixture. The assay was performed for 1 hour at 37° C. protected from light. 7-Amino-4-Methylcoumarin (AMC) release was detected measuring fluorescence at an excitation wavelength of 380 nm and an emission wavelength of 460 nm using a Multifunction Microplate Reader (Synergy 4, Biotek). All measurements were carried out at least as a single point.

[1] = molecular target: T2, recombinant human FAPα (rhFAPα) (Homo sapiens, UniProt Q12884); assay: FAPα enzymatic endopeptidase (collagenase) activity assay, DQ collagen; assay type: biochemical; settings: Table 2, read-out: rhFAPα (endo IC50)
T2 construct: purchased R&S system (so in the source)
T2 sequence (Q12884 1-760): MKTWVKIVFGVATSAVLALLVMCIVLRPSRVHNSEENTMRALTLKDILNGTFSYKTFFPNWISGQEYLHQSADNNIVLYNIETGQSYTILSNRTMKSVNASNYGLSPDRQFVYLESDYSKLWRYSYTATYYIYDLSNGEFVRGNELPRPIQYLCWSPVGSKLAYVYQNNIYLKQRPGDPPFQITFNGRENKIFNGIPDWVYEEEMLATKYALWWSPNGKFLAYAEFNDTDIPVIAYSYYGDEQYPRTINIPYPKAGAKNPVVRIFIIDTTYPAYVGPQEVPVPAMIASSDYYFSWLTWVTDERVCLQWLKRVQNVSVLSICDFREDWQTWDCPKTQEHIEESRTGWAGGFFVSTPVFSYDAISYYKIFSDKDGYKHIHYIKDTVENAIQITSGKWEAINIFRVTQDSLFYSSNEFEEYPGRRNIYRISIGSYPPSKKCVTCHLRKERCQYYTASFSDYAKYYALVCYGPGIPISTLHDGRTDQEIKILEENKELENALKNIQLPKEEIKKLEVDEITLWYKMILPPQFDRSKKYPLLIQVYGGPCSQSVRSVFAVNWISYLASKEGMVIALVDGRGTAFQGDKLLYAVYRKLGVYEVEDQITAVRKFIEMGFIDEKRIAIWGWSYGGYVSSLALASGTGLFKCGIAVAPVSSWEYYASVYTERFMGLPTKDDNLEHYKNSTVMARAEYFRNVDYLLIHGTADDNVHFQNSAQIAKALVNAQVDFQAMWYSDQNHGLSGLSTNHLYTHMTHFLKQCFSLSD

Row | SMILES | IC50 (FAPα) [nM] | IC50 [1] [nM]
1 | N#C[C@@H]1CC(F)(F)CN1C(=O)CNC(=O)c1ccncc1NCc1ccc(F)cc1 [Compound 2, (S)—N-(2-(2-cyano-4,4-difluoropyrrolidin-1-yl)-2-oxoethyl)-3-((4-fluorobenzyl)amino)isonicotinamide] | < 1000 | 
2 | COc1ccc(C(=O)Nc2cnccc2C(=O)NCC(=O)N2CC(F)(F)C[C@H]2C#N)cc1 [Compound 3, (S)—N-(2-(2-cyano-4,4-difluoropyrrolidin-1-yl)-2-oxoethyl)-3-(4-methoxybenzamido)isonicotinamide] | < 1000 | < 1000
3 | N#C[C@@H]1CC(F)(F)CN1C(=O)CNC(=O)c1ccncc1/C=C/c1ccc(Cl)cc1 [Compound 9, (S,E)-3-(4-chlorostyryl)-N-(2-(2-cyano-4,4-difluoropyrrolidin-1-yl)-2-oxoethyl)isonicotinamide] | < 1000 | < 1000

More lines, main results first:

Row | IC50 (FAPα) [nM] | SMILES | IC50 [1] [nM]
4 | < 1000 | N#C[C@@H]1CC(F)(F)CN1C(=O)CNC(=O)c1ccncc1NC(=O)COc1ccc(Cl)c(F)c1 [Compound 5, (S)-3-(2-(4-chloro-3-fluorophenoxy)acetamido)-N-(2-(2-cyano-4,4-difluoropyrrolidin-1-yl)-2-oxoethyl)isonicotinamide] | 
5 | < 1000 | N#C[C@@H]1CC(F)(F)CN1C(=O)CNC(=O)c1ccncc1Cc1ccccc1F [Compound 7, (S)—N-(2-(2-cyano-4,4-difluoropyrrolidin-1-yl)-2-oxoethyl)-3-(2-fluorobenzyl)isonicotinamide] | 
6 | < 1000 | N#C[C@@H]1CC(F)(F)CN1C(=O)CNC(=O)c1ccncc1Cc1ccc(F)cc1 [Compound 8, (S)—N-(2-(2-cyano-4,4-difluoropyrrolidin-1-yl)-2-oxoethyl)-3-(4-fluorobenzyl)isonicotinamide] | 
